Measured values taken from publication PMC11050816, “Pharmacokinetics and Safety of Lurbinectedin Administrated with Itraconazole in Cancer Patients: A Drug–Drug Interaction Study” (Marine Drugs, 2024).
Read-outs that look alike come from different tables or passages of the source.

Columns and labels:
[1] = Total plasma lurbinectedin pharmacokinetics with and without itraconazole (phase Ib drug-drug interaction study); assay type: in vivo, human
Description: (§1) The study consisted of two parts.

[2] = Unbound plasma lurbinectedin pharmacokinetics with and without itraconazole (phase Ib drug-drug interaction study); assay type: in vivo, human
Description: as §1

[3] = Safety assessment: adverse events and laboratory abnormalities graded by NCI-CTCAE v. 5.0; assay type: in vivo, human
Description: Safety analyses included all 14 patients who received at least one dose of lurbinectedin (Part A, n = 3; Part B, n = 11). Thirteen of the fourteen treated patients (three in Part A and ten in Part B) received itraconazole plus lurbinectedin in Cycles 1 or 2, and all fourteen treated patients (three in Part A and 11 in Part B) received lurbinectedin alone in Cycles 1, 2, or 3.
as §1
Safety evaluations included assessments of AEs, clinical laboratory tests, deaths, vital signs measurements, and physical examinations. TEAEs were defined as any AE that worsened in severity from baseline or having their onset between the first dose of the study drug and 31 days (±10 days) after the last dose, death, or date of further therapy. AEs were coded based on the Medical Dictionary for Regulatory Activities (MedDRA) v. 23.0 and graded as per the National Cancer Institute–Common Terminology Criteria for Adverse Events (NCI-CTCAE) v. 5.0.

[4] = cited from earlier work
[5] = set-up: method as in PMID 24563480; conditions: 1.3 mg/m^2 over 1 h without CYP3A4 inhibitors; cited from earlier work
[6] = cited from earlier work; remark: listed apart in the source
cytochrome P450 (CYP) 3A = conditions: based on in vitro studies; cited from earlier work
[7] = co-administration with itraconazole compared to lurbinectedin alone
[8] = co-administration with itraconazole compared to lurbinectedin alone, listed as LRB
[9] = co-administration with multiple oral doses of itraconazole
[10] = total plasma lurbinectedin, n = 8 patients per treatment
[11] = unbound plasma lurbinectedin, Test n = 5, Reference n = 8
[12] = Part A (LRB 0.8 mg/m^2 with ITZ, 3.2 mg/m^2 alone), all grades
[13] = Part A (LRB 0.8 mg/m^2 with ITZ, 3.2 mg/m^2 alone), grade 3
[14] = Part A (LRB 0.8 mg/m^2 with ITZ, 3.2 mg/m^2 alone), grade 4
[15] = Part B (LRB 0.9 mg/m^2 with ITZ, 3.2 mg/m^2 alone), all grades
[16] = Part B (LRB 0.9 mg/m^2 with ITZ, 3.2 mg/m^2 alone), grade 3
[17] = Part B (LRB 0.9 mg/m^2 with ITZ, 3.2 mg/m^2 alone), grade 4

Compound: COc1ccc2[nH]c3c(c2c1)CCN[C@]31CS[C@@H]2c3c(OC(C)=O)c(C)c4c(c3[C@H](COC1=O)N1[C@@H]2[C@H]2c3c(cc(C)c(OC)c3O)C[C@@H]([C@@H]1O)N2C)OCO4 [lurbinectedin]
- Increase of total plasma AUC0–t [1, 7]: approximately 2.4 fold
- Increase of total plasma AUC0–∞ [1, 7]: approximately 2.7 fold
- Increase of total plasma Cmax [1, 7]: 15%
- Increase of total plasma AUC0–t [1, 8]: 2.4 fold
- Increase of total plasma AUC0–∞ [1, 8]: 2.7 fold
- Prolongation of terminal half-life (t1/2), total plasma [1, 9]: 2.2 fold
- Reduction of total plasma CL [1, 9]: 63%
- clearance ([1]; human, intravenous, 3.2 mg/m^2, total plasma lurbinectedin, n = 8 patients per treatment, read-out: CL, geometric mean (CV%) (converted)): 158 mL/min
- Vd ([1]; human, intravenous, 3.2 mg/m^2, total plasma lurbinectedin, n = 8 patients per treatment, read-out: Vss, geometric mean (CV%)): 419 L
- half-life ([1]; human, intravenous, 3.2 mg/m^2, total plasma lurbinectedin, n = 8 patients per treatment, read-out: t1/2, geometric mean (CV%) (converted)): 46.6 h
- AUC0–t, dose-normalized, geometric mean (CV%) [1, 10]: 103.4 (78.85) µg·h/L/mg
- AUC0–∞, dose-normalized, geometric mean (CV%) [1, 10]: 105.8 (77.37) µg·h/L/mg
- Cmax, dose-normalized, geometric mean (CV%) [1, 10]: 22.43 (53.75) µg/L/mg
- Decrease of unbound CL [2, 7]: 58%
- Increase of unbound AUC0–∞ [2, 7]: 2.4 fold
- Unbound t1/2 longer [2, 7]: 2 fold
- Vd ([2]; human, intravenous, 3.2 mg/m^2, unbound plasma lurbinectedin, Test n = 5, Reference n = 8, read-out: Unbound Vss, geometric mean (CV%)): 235000 L
- half-life ([2]; human, intravenous, 3.2 mg/m^2, unbound plasma lurbinectedin, Test n = 5, Reference n = 8, read-out: Unbound t1/2, geometric mean (CV%) (converted)): 46.6 h
- Unbound AUC0–t, dose-normalized, geometric mean (CV%) [2, 11]: 184.55 (57.58) pg·h/mL/mg
- Unbound AUC0–∞, dose-normalized, geometric mean (CV%) [2, 11]: 188.84 (56.92) pg·h/mL/mg
- Unbound CL, geometric mean (CV%) [2, 11]: 5295.44 (56.92) L/h
- Unbound Cmax, dose-normalized, geometric mean (CV%) [2, 11]: 40.03 (21.75) pg/mL/mg
- Tolerability ([3]; 0.9 mg/m^2 1 h IV infusion Day 1 q3wk with itraconazole): well tolerated
- ALT increased (biochemical laboratory abnormality, regardless of relationship) [3, 12]: 1 (33) n (%) of patients
- Anemia (hematological laboratory abnormality, regardless of relationship) [3, 12]: 3 (100) n (%) of patients
- Constipation (treatment-related AE) [3, 12]: 1 (33) n (%) of patients
- GGT increased (biochemical laboratory abnormality, regardless of relationship) [3, 12]: 1 (33) n (%) of patients
- Leukopenia (hematological laboratory abnormality, regardless of relationship) [3, 12]: 3 (100) n (%) of patients
- Lymphopenia (hematological laboratory abnormality, regardless of relationship) [3, 12]: 3 (100) n (%) of patients
- Neutropenia (hematological laboratory abnormality, regardless of relationship) [3, 12]: 2 (67) n (%) of patients
- Thrombocytopenia (hematological laboratory abnormality, regardless of relationship) [3, 12]: 2 (67) n (%) of patients
- Vomiting (treatment-related AE) [3, 12]: 1 (33) n (%) of patients
- ALT increased (biochemical laboratory abnormality, regardless of relationship) [3, 13]: 1 (33) n (%) of patients
- Leukopenia (hematological laboratory abnormality, regardless of relationship) [3, 13]: 1 (33) n (%) of patients
- Lymphopenia (hematological laboratory abnormality, regardless of relationship) [3, 13]: 1 (33) n (%) of patients
- Leukopenia (hematological laboratory abnormality, regardless of relationship) [3, 14]: 1 (33) n (%) of patients
- Neutropenia (hematological laboratory abnormality, regardless of relationship) [3, 14]: 2 (67) n (%) of patients
- Bone pain (treatment-emergent AE, regardless of relationship) ([3]; Part A, all grades): 1 (33) n (%) of patients
- Constipation (treatment-emergent AE, regardless of relationship) ([3]; Part A, all grades): 1 (33) n (%) of patients
- Dysgeusia (treatment-emergent AE, regardless of relationship) ([3]; Part A, all grades): 1 (33) n (%) of patients
- Fatigue (treatment-emergent AE, regardless of relationship) ([3]; Part A, all grades): 1 (33) n (%) of patients
- Pleural effusion (treatment-emergent AE, regardless of relationship) ([3]; Part A, all grades): 1 (33) n (%) of patients
- Vomiting (treatment-emergent AE, regardless of relationship) ([3]; Part A, all grades): 1 (33) n (%) of patients
- Pleural effusion (treatment-emergent AE, regardless of relationship) ([3]; Part A, grade 3): 1 (33) n (%) of patients
- ALT increased (biochemical laboratory abnormality, regardless of relationship) [3, 15]: 9 (82) n (%) of patients
- Acute kidney injury (treatment-related AE) [3, 15]: 1 (9) n (%) of patients
- Anemia (hematological laboratory abnormality, regardless of relationship) [3, 15]: 9 (82) n (%) of patients
- CPK increased (biochemical laboratory abnormality, regardless of relationship) [3, 15]: 1 (9) n (%) of patients
- Fatigue (treatment-related AE) [3, 15]: 2 (18) n (%) of patients
- GGT increased (biochemical laboratory abnormality, regardless of relationship) [3, 15]: 4 (36) n (%) of patients
- Leukopenia (hematological laboratory abnormality, regardless of relationship) [3, 15]: 8 (73) n (%) of patients
- Lymphopenia (hematological laboratory abnormality, regardless of relationship) [3, 15]: 9 (82) n (%) of patients
- Nausea (treatment-related AE) [3, 15]: 5 (45) n (%) of patients
- Neutropenia (hematological laboratory abnormality, regardless of relationship) [3, 15]: 8 (73) n (%) of patients
- Rhabdomyolysis (treatment-related AE) [3, 15]: 1 (9) n (%) of patients
- Thrombocytopenia (hematological laboratory abnormality, regardless of relationship) [3, 15]: 8 (73) n (%) of patients
- Vomiting (treatment-related AE) [3, 15]: 3 (27) n (%) of patients
- Acute kidney injury (treatment-related AE) [3, 16]: 1 (9) n (%) of patients
- Anemia (hematological laboratory abnormality, regardless of relationship) [3, 16]: 1 (9) n (%) of patients
- GGT increased (biochemical laboratory abnormality, regardless of relationship) [3, 16]: 1 (9) n (%) of patients
- Leukopenia (hematological laboratory abnormality, regardless of relationship) [3, 16]: 5 (45) n (%) of patients
- Lymphopenia (hematological laboratory abnormality, regardless of relationship) [3, 16]: 2 (18) n (%) of patients
- Neutropenia (hematological laboratory abnormality, regardless of relationship) [3, 16]: 5 (45) n (%) of patients
- Rhabdomyolysis (treatment-related AE) [3, 16]: 1 (9) n (%) of patients
- Vomiting (treatment-related AE) [3, 16]: 1 (9) n (%) of patients
- CPK increased (biochemical laboratory abnormality, regardless of relationship) [3, 17]: 1 (9) n (%) of patients
- Leukopenia (hematological laboratory abnormality, regardless of relationship) [3, 17]: 1 (9) n (%) of patients
- Lymphopenia (hematological laboratory abnormality, regardless of relationship) [3, 17]: 1 (9) n (%) of patients
- Neutropenia (hematological laboratory abnormality, regardless of relationship) [3, 17]: 3 (27) n (%) of patients
- Thrombocytopenia (hematological laboratory abnormality, regardless of relationship) [3, 17]: 1 (9) n (%) of patients
- Acute kidney injury (treatment-emergent AE, regardless of relationship) ([3]; Part B, all grades): 1 (9) n (%) of patients
- Deep vein thrombosis (treatment-emergent AE, regardless of relationship) ([3]; Part B, all grades): 1 (9) n (%) of patients
- Diarrhea (treatment-emergent AE, regardless of relationship) ([3]; Part B, all grades): 1 (9) n (%) of patients
- Fatigue (treatment-emergent AE, regardless of relationship) ([3]; Part B, all grades): 2 (18) n (%) of patients
- Intestinal pseudo-obstruction (treatment-emergent AE, regardless of relationship) ([3]; Part B, all grades): 1 (9) n (%) of patients
- Nausea (treatment-emergent AE, regardless of relationship) ([3]; Part B, all grades): 5 (45) n (%) of patients
- Respiratory failure (treatment-emergent AE, regardless of relationship) ([3]; Part B, all grades): 1 (9) n (%) of patients
- Rhabdomyolysis (treatment-emergent AE, regardless of relationship) ([3]; Part B, all grades): 1 (9) n (%) of patients
- Small intestinal obstruction (treatment-emergent AE, regardless of relationship) ([3]; Part B, all grades): 1 (9) n (%) of patients
- Stomatitis (treatment-emergent AE, regardless of relationship) ([3]; Part B, all grades): 1 (9) n (%) of patients
- Vomiting (treatment-emergent AE, regardless of relationship) ([3]; Part B, all grades): 3 (27) n (%) of patients
- Acute kidney injury (treatment-emergent AE, regardless of relationship) ([3]; Part B, grade 3): 1 (9) n (%) of patients
- Deep vein thrombosis (treatment-emergent AE, regardless of relationship) ([3]; Part B, grade 3): 1 (9) n (%) of patients
- Rhabdomyolysis (treatment-emergent AE, regardless of relationship) ([3]; Part B, grade 3): 1 (9) n (%) of patients
- Small intestinal obstruction (treatment-emergent AE, regardless of relationship) ([3]; Part B, grade 3): 1 (9) n (%) of patients
- Vomiting (treatment-emergent AE, regardless of relationship) ([3]; Part B, grade 3): 1 (9) n (%) of patients
- Patients with lurbinectedin dose reduction due to AEs ([3]; during treatment with lurbinectedin alone (grade 3 ALT increase; grade 4 neutropenia)): Two
- Patients who discontinued treatment due to a treatment-related serious AE ([3]; grade 3 rhabdomyolysis, Cycle 2 of Part B (Sequence 1), lurbinectedin alone): one
- Population estimate for total plasma CL ([4]; 1 h IV infusion, single agent or combined): 11.2 L/h
- Extraction ratio [4]: 0.19
- Population estimate of apparent volume at steady state [4]: 438 L
- Reduction of CL ([4]; co-administration of cytochrome CYP3A inhibitors): 30%
- Decrease of mean plasma CL ([4]; concomitant administration of aprepitant (a moderate CYP3A4 inhibitor)): 30%
- Blood CL ([4]; corresponding to total plasma CL 11.2 L/h): ~ 17 L/h
- Reduction of CL ([4]; high C-reactive protein): 20%
- Reduction of CL ([4]; high α-1-acid glycoprotein): 28%
- Reduction of CL ([4]; low albumin): 20%
- Time after starting the infusion for which plasma concentrations were measurable [5]: at least 160 h
- Protein binding [6]: highly protein-bound
- Major clearance (CL) mechanism (cytochrome P450 (CYP) 3A): metabolism of lurbinectedin by cytochrome P450 (CYP) 3A
